# Source: US10023615B2, “Efficient transport into white blood cells” (priority 2008, dated 2018)
# Entries after “also recorded” stand apart in the source; their conditions may differ. Ends that are not written are not given here.
# System: bleomycin induced lung inflammation
# Test: Bleomycin (BLM) induced acute lung inflammation
# Assay type: in vivo, C57BL/6 mice
# Conditions: for cell recruitment in bronchoalveolar lavage space: single dose, 1 day
# Description: In order to determine the activity of the exemplary all-D retro-inverso IB(s) peptide XG-102 (SEQ ID NO: 233) in the treatment of Chronic Obstructive Pulmonary Disease (COPD) XG-102 (SEQ ID NO: 233) is used in an animal model of Bleomycin induced acute lung inflammation and fibrosis. The protocol of bleomycin induced inflammation and fibrosis has been described before in the literature. The aim of the Experiment was to investigate the effect of XG-102 (SEQ ID NO: 233) by subcutaneous (s.c.) route on neutrophil recruitment in broncho alveolar lavage (BAL) and lung in bleomycin induced inflammation and fibrosis: • at 1 day after a single bleomycin administration (10 mg/kg) • and at day 10 with the development of fibrosis
# 1) Method and Experimental Approach • The test compound XG-102 (SEQ ID NO: 233) at two doses and vehicle control were given s.c. with a single intranasal administration of bleomycin and mice were analyzed after 1 and 10 days. The animals used in the model were 10 C57BL/6 mice (8 weeks old) per group. The experimental groups included vehicle, 0.001 mg/kg XG-102 (SEQ ID NO: 233) and 0.1 mg/kg XG-102 (SEQ ID NO: 233), and the treatment consisted of repeated sub-cutaneous administration of XG-102 (SEQ ID NO: 233), prior to bleomycin administration then every 3 days. Acute lung inflammation at 24 h was monitored by BAL lavage, cytology, cell counts, and lung myeloperoxidase activity. The effect of the compound was compared with vehicle controls. Lung fibrosis was assessed histologically using hematoxylin and eosin staining at day 10 after the single dose of bleomycin.
# 1.1) Bleomycin Administration • Bleomycin sulfate in saline (10 mg/kg body weight) from Bellon Laboratories (Montrouge, France) or saline were given through the airways by nasal instillation in a volume of 40 μL under light ketamine-xylasine anesthesia. The groups for Bleomycin administration for both bleomycin induced inflammation and fibrosis included: Vehicle, 0.001 mg/kg XG-102 (SEQ ID NO: 233) and 0.1 mg/kg XG-102 (SEQ ID NO: 233). The route for bleomycin induced inflammation was subcutaneous (s.c.) route, and administration occurred as a single dose. The route for bleomycin induced fibrosis was subcutaneous (s.c.) route, and administration occurred 3 times in 10 days.
# 1.2) Bronchoalveolar Lavage Fluid (BALE) • After incision of the trachea, a plastic cannula was inserted and airspaces were washed using 0.3 ml of PBS solution, heated to 37° C. The samples collected were dispatched in 2 fractions: the first one (1 ml corresponding to the 2 first lavages) was used for mediator measurement and the second one for the cell determination (4 ml). The first fraction was centrifuged (600 g for 10 min) and supernatant was fractionated and kept at −80° C. until mediator determination. The cell pellet was then resuspended in 0.4 ml sterile NaCl, 0,9%, and pooled with the second fraction and was used for cell counts.
# 1.3) Lung Homogenization • After BAL the whole lung was removed and placed inside a microtube (Lysing matrix D, Q Bio Gene, Illkrich, France) with 1 ml of PBS, total lung tissue extract was prepared using a Fastprep® system (FP120, Q Bio Gene, Illkrich, France), the extract was then centrifuged and the supernatant stored at −80° C. before mediator measurement and collagen assay with Sircol Collagen Assay (France Biochem Division, France).
# 1.4) Cell Count and Determination • Total cell count was determined in BAL fluid using a Malassez hemocytometer. Differential cell counts were performed on cytospin preparations (Cytospin 3, Thermo Shandon) after staining with MGG Diff-quick (Dade Behring AG). Differential cell counts were made on 200 cells using standard morphological criteria.
# 1.5) TNF Measurement • TNF level in BALF was determined using ELISA assay kits (Mouse DuoSet, R&D system, Minneapolis, USA) according to manufacturer's instructions. Results are reported as pg/ml. […]
substance,measurement,setting,value
dqsrpvqpflnIttprkprpprrrqrrkkrg (DQSRPVQPFLNLTTPRKPRPPRRRQRRKKRG; not fully specified (some residues); printed as dqsrpvqpflnIttprkprpprrrqrrkkrg) [XG-102],cell recruitment in bronchoalveolar lavage space,0.001 mg/kg s.c.,has no effect on neutrophil recruitment or other cell types into the bronchoalveolar space
same,cell recruitment in bronchoalveolar lavage space,0.1 mg/kg s.c.,reduces significantly the neutrophil recruitment and the number of total cells recruited; also recorded: decreases the neutrophil and total cell recruitment into the bronchoalveolar space
same,MPO levels in the lung,MPO not significantly induced after bleomycin,no effect on MPO levels in the lung; also recorded: no effect on the MPO levels in the lung
same,TNF level in BALF,TNF levels very low after BLM,a trend to reduction of the TNF level in BALF; also recorded: induces a trend to decrease the TNF level
same,Bleomycin-induced inflammation (conclusion),"mouse, in vivo",reduces the Bleomycin-induced inflammation
same,histology: inflammatory cell accumulation,peribronchial space,a decrease of the inflammatory cell accumulation in the peribronchial space
